Data published in ChEMBL document CHEMBL1201862, “PubChem BioAssay data set” (2004).
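Dose response: 5 concentrations. Exposure: 48 h. Format: 96-well plates. Endpoint: linear interpolation; highest concentration if not reached. Abbreviation: GI50, concentration required for 50% inhibition of growth.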 Activity calls are given as the source filed them. Cut-off read from the data, not from the text of the source: active = GI50 up to about 1.1 µM and inactive = higher.

Experiments:
Assay in all cases: NCI anticancer screen, dose series, 48 h
[1] = system: IGROV-1
[2] = system: NCI-H23
[3] = system: DMS-114
[4] = system: CAKI-1
[5] = system: COLO 205
[6] = system: A549
[7] = system: LOX IMVI
[8] = system: OVCAR-3
[9] = system: OVCAR-5
[10] = system: 786-0
[11] = system: DMS-273
[12] = system: MCF7
[13] = system: NCI/ADR-RES
[14] = system: DU-145
[15] = system: T47D
[16] = system: Hs-578T
[17] = system: MDA-N
[18] = system: BT-549
[19] = system: PC-3
[20] = system: MDA-MB-435

Row | Structure (SMILES) | GI50 [1] | GI50 [2] | GI50 [3] | GI50 [4] | GI50 [5] | GI50 [6] | GI50 [7] | GI50 [8] | GI50 [9] | GI50 [10] | GI50 [11] | GI50 [12] | GI50 [13] | GI50 [14] | GI50 [15] | GI50 [16] | GI50 [17] | GI50 [18] | GI50 [19] | GI50 [20]
1 | Cc1ccc(C)c(NC(=O)C(=O)CC(=O)C2CCOC2=O)c1 (centres undefined) | > 100 µM (inactive) | > 100 µM (inactive) | > 100 µM (inactive) | > 100 µM (inactive) | > 100 µM (inactive) | > 100 µM (inactive) | > 100 µM (inactive) | > 100 µM (inactive) | > 100 µM (inactive) | > 100 µM (inactive) | > 100 µM (inactive) | – | – | – | – | – | – | – | – | –
2 | O=C(c1ccccc1O)c1cc(-c2ncc3c(=O)c4ccccc4oc3n2)c(-c2ccccc2O)[nH]c1=O | 26.9 µM (inactive) | 19.7 µM (inactive) | 28.8 µM (inactive) | 8.02 µM (inactive) | 31.9 µM (inactive) | 25.5 µM (inactive) | 18.6 µM (inactive) | 24 µM (inactive) | 24 µM (inactive) | – | 26.8 µM (inactive) | 14.3 µM (inactive) | 31.7 µM (inactive) | – | – | – | – | – | – | –
3 | Clc1ccc(CCn2cncn2)cc1 | > 100 µM (inactive) | > 100 µM (inactive) | > 100 µM (inactive) | > 100 µM (inactive) | > 100 µM (inactive) | > 100 µM (inactive) | > 100 µM (inactive) | > 100 µM (inactive) | > 100 µM (inactive) | > 100 µM (inactive) | > 100 µM (inactive) | – | – | – | – | – | – | – | – | –
4 | O=C(Nc1cccc(O)c1)C(=O)C1C(=O)NC(=S)NC1=O | > 100 µM (inactive) | > 100 µM (inactive) | > 100 µM (inactive) | > 100 µM (inactive) | > 100 µM (inactive) | > 100 µM (inactive) | > 100 µM (inactive) | > 100 µM (inactive) | – | > 100 µM (inactive) | > 100 µM (inactive) | – | – | – | – | – | – | – | – | –
5 | NS(=O)(=O)c1ccc(NC(=O)C2C(=O)C(=O)N(c3ccc(S(N)(=O)=O)cc3)C2=O)cc1 (centres undefined) | > 100 µM (inactive) | > 100 µM (inactive) | > 100 µM (inactive) | > 100 µM (inactive) | > 100 µM (inactive) | > 100 µM (inactive) | > 100 µM (inactive) | > 100 µM (inactive) | > 100 µM (inactive) | > 100 µM (inactive) | > 100 µM (inactive) | – | – | – | – | – | – | – | – | –
6 | CC(=O)c1ccc(NC(=O)/C(=N\NC(N)=O)C(C#N)CC(C)(C)C=O)cc1 (centres undefined) | > 100 µM (inactive) | > 100 µM (inactive) | > 100 µM (inactive) | > 100 µM (inactive) | > 100 µM (inactive) | > 100 µM (inactive) | > 100 µM (inactive) | – | > 100 µM (inactive) | – | > 100 µM (inactive) | – | – | – | – | – | – | – | – | –
7 | COC(=O)C(CC(=O)c1cc2c(cc1I)OCO2)Cc1cc(OC)c(OC)c(OC)c1I (centres undefined) | > 100 µM (inactive) | 45.6 µM (inactive) | 22.8 µM (inactive) | 25 µM (inactive) | > 100 µM (inactive) | > 100 µM (inactive) | > 100 µM (inactive) | 7.21 µM (inactive) | 2.88 µM (inactive) | > 100 µM (inactive) | > 100 µM (inactive) | – | – | – | – | – | – | – | – | –
8 | Nc1ccc(N)c2c1C(=O)c1ccccc1C2=O | 6.44 µM (inactive) | 17.7 µM (inactive) | 32.7 µM (inactive) | 4.57 µM (inactive) | 17.8 µM (inactive) | 24.4 µM (inactive) | 9.02 µM (inactive) | 43.9 µM (inactive) | > 100 µM (inactive) | 78.7 µM (inactive) | 16 µM (inactive) | – | – | – | – | – | – | – | – | –
9 | COC(=O)C(C/C=C(\C)c1ccccc1)C(C)=O (centres undefined) | > 100 µM (inactive) | 90.6 µM (inactive) | 34.9 µM (inactive) | – | > 81.8 µM (inactive) | 53.1 µM (inactive) | 68.2 µM (inactive) | 50.6 µM (inactive) | > 100 µM (inactive) | – | > 83.9 µM (inactive) | > 70.3 µM (inactive) | 54.6 µM (inactive) | – | – | – | – | – | – | –
10 | O=C(CC1(O)C(=O)Nc2ccccc21)c1ccc2ccccc2c1 (centres undefined) | > 100 µM (inactive) | > 100 µM (inactive) | > 100 µM (inactive) | > 100 µM (inactive) | > 100 µM (inactive) | > 100 µM (inactive) | > 100 µM (inactive) | > 100 µM (inactive) | > 100 µM (inactive) | > 100 µM (inactive) | > 100 µM (inactive) | – | – | – | – | – | – | – | – | –
11 | CCOC(=O)C1=C(C(C)=O)CSC(c2ccccc2)=N1 | > 100 µM (inactive) | 98.4 µM (inactive) | > 100 µM (inactive) | > 100 µM (inactive) | > 100 µM (inactive) | > 100 µM (inactive) | > 100 µM (inactive) | > 100 µM (inactive) | > 100 µM (inactive) | – | > 100 µM (inactive) | 40.7 µM (inactive) | > 100 µM (inactive) | – | – | – | – | – | – | –
12 | COc1cccc(-c2nc3c(C(=O)NCCN(C)C)cccc3[nH]2)c1 | 21.4 µM (inactive) | 19.2 µM (inactive) | 15.3 µM (inactive) | 16 µM (inactive) | 10 µM (inactive) | 18.5 µM (inactive) | 13.3 µM (inactive) | 22.7 µM (inactive) | 19.1 µM (inactive) | – | 11.3 µM (inactive) | 21.8 µM (inactive) | 18 µM (inactive) | – | – | – | – | – | – | –
13 | COC(=O)[C@]1(c2ccc(N(C)C)cc2OC)C[C@@H]2CCCN(CCc3c1[nH]c1ccccc31)C2 | 20.2 µM (inactive) | 18.9 µM (inactive) | 16.6 µM (inactive) | 54.1 µM (inactive) | 13.8 µM (inactive) | 34.4 µM (inactive) | > 43.7 µM (inactive) | 18.5 µM (inactive) | > 60.4 µM (inactive) | – | 20.5 µM (inactive) | 15.9 µM (inactive) | 18.8 µM (inactive) | – | – | – | – | – | – | –
14 | Nc1ncnc2c1ncn2C1C=C(CO)C(O)C1O (centres undefined) | 7.74 µM (inactive) | 2.83 µM (inactive) | 1.99 µM (inactive) | 13.1 µM (inactive) | 3.32 µM (inactive) | 14.9 µM (inactive) | 3 µM (inactive) | 5.01 µM (inactive) | 7.5 µM (inactive) | 4.17 µM (inactive) | 2.64 µM (inactive) | 0.197 µM (active) | 5.61 µM (inactive) | 5.69 µM (inactive) | 1.64 µM (inactive) | 83.6 µM (inactive) | 3.37 µM (inactive) | 1.99 µM (inactive) | 6.92 µM (inactive) | 3.08 µM (inactive)
